Measurements from patent US10532068B2, “Dual molecular delivery of oligonucleotides and peptide containing conjugates” (Merck Sharp & Dohme Corp., priority 2013, dated 2020).
Where no end group is shown, it is not given here. [ ]: non-standard residue; d: D form. TGN = not defined here

System: CTNNB1
Experiment: In vivo evaluation in mice: liver mRNA knockdown measurement (TaqMan qPCR)
Design: species or system CD-1 mice
Conditions: mice
Procedure: Female CD-1 mice (Charles River) were injected in accordance with either a sequential dosing paradigm or a co-dosing paradigm. In the sequential dosing paradigm, the targeted siRNA (SCE) is dosed at t=0 and the targeted peptide is separately dosed up to 2 hr before the SCE (−2 hr) or up to 24 hr after the SCE (+24 hr). In the co-dosing paradigm, the SCE and peptides are co-formulated and dosed together in the same formulation as a single injection at t=0. The mice were dosed either by intravenous (i.v.) or subcutaneous (s.c.) injection of SCE and peptide. For the i.v. doses, the compounds were injected into the tail vein of the mice. For the s.c. doses, the compounds were injected in the subcutaneous space on the back of the mouse between the shoulder blades. At the indicated harvest times (measured from t=0 when the siRNA was dosed, regardless of when the peptide was dosed), the animals were sacrificed and 3 mm liver punches were collected, preserved in RNAlater (Ambion), and stored at 4° C. Separate 5 mm liver punches were collected, placed in 96-well plates, frozen on dry ice, and stored at −80° C. until use.
The 3 mm liver punches were removed from RNAlater and homogenized in Trizol (Invitrogen) using a bead mill tissue lyser (Qiagen); disruption was performed for two 5-minute cycles at 30 Hz. RNA extraction was performed using 1-bromo-2-chloropropane (Acros Organics) and total RNA was isolated from the aqueous phase using the MagMax RNA isolation method (Ambion). […] TaqMan qPCR analysis was performed with an ABI 7900 Real-Time PCR System using TaqMan Fast Advanced Master Mix (Applied Biosystems). All TaqMan probes and primers for CTNNB1 and PPIB (housekeeping gene) were purchased from Applied Biosystems as pre-validated gene expression assays. Results are calculated by the comparative Ct method, where the difference between the CTNNB1 Ct value and the PPIB Ct value (ΔCt) is calculated and then further normalized relative to the PBS control by taking a second difference (ΔΔCt), as described previously (1).

[1] = Table 6, sequential, peptide IV 15 min after siRNA IV, TGN-L-siRNA-III 0.25 mg/kg, peptide 10 mg/kg
[2] = Table 6, sequential, peptide IV 15 min after siRNA IV, TGN-L-siRNA-III 0.5 mg/kg, peptide 5 mg/kg
[3] = Table 6, sequential, peptide IV 15 min after siRNA IV, TGN-L-siRNA-III 0.25 mg/kg, peptide 5 mg/kg
[4] = Table 6, sequential, peptide IV 15 min after siRNA IV, TGN-L-siRNA-II 0.25 mg/kg, peptide 1 mg/kg
[5] = Table 6, sequential, peptide IV 15 min after siRNA IV, TGN-L-siRNA-II 0.25 mg/kg, peptide 3 mg/kg

TGN-S-S-SEQ ID NO: 1652 (D) ([dC](TGN)[dE][dL][dF][dE][dE][dL][dA][dE][dL][dL][dW][dE]G[dL][dE][dN][dL][dI][dD][dW]G[dN][dS]; reading uncertain; also: Cys disulfide-linked to TGN peptide; listed as Homo sapiens)
In vivo mRNA knockdown (%) [1]: 37%

TGN-S-S-SEQ ID NO: 1653 (D) ([dC](TGN)G[dL][dF]G[dE][dI][dA][dE][dL][dI][dW][dE]G[dL][dE][dN][dL][dI][dD][dW]G[dN]G; reading uncertain; also: Cys disulfide-linked to TGN peptide; listed as Homo sapiens)
In vivo mRNA knockdown (%) [1]: 63%
In vivo mRNA knockdown (%) (Table 6, sequential, peptide IV 15 min after siRNA IV, TGN-L-siRNA-III 0.25 mg/kg, peptide 50 mg/kg): 69%

TGN-S-S-SEQ ID NO: 1712 (L) (C(TGN)FLGALWKALSELLKNLIDWWNG; reading uncertain; also: Cys disulfide-linked to TGN peptide; listed as Homo sapiens)
In vivo mRNA knockdown (%) [2]: 34%

TGN-S-S-SEQ ID NO: 1713 (L): TGN-S-S-peptide, peptide CGL-R6H-GELEEL-S7H-EEGLENLIDWWNG (STAPLED)
In vivo mRNA knockdown (%) (Table 6, sequential, peptide IV 15 min after siRNA IV, TGN-L-siRNA-III 0.25 mg/kg, peptide 2 mg/kg): 0%
In vivo mRNA knockdown (%) [1]: 2%

TGN-S-S-SEQ ID NO: 1716 (L) (C(TGN)GLFEELAGLLWHGLKNLIDWWNG; reading uncertain; also: Cys disulfide-linked to TGN peptide; listed as Homo sapiens)
In vivo mRNA knockdown (%) [2]: 39%

TGN-S-S-SEQ ID NO: 1717(L): TGN-S-S-peptide, peptide CFLGALFHALSHLLENLIDWWNG (C(TGN)FLGALFHALSHLLENLIDWWNG; reading uncertain; also: Cys disulfide-linked to TGN peptide; listed as Homo sapiens)
In vivo mRNA knockdown (%) [2]: 16%

TGN-S-S-SEQ ID NO: 1719 (L) (C(TGN)GLFAEIEELIWEGLENLIDWWNQ; reading uncertain; also: Cys disulfide-linked to TGN peptide; listed as Homo sapiens)
In vivo mRNA knockdown (%) [3]: 25%

TGN-S-S-SEQ ID NO: 1725 (L) (C(TGN)SSAWWSYWPPVA; reading uncertain; also: Cys disulfide-linked to TGN peptide; listed as Homo sapiens)
In vivo mRNA knockdown (%) [1]: 19%

TGN-S-S-SEQ ID NO: 1726(D) ([dC](TGN)G[dL][dF][dA][dV][dI][dK][dK][dV][dA][dS][dV][dI]GG[dL]; reading uncertain; also: Cys disulfide-linked to TGN peptide; listed as Homo sapiens)
In vivo mRNA knockdown (%) [1]: 23%

TGN-S-S-SEQ ID NO: 1727 (D) ([dC](TGN)G[dL][dF][dA][dV][dI][dH][dH][dV][dA][dS][dV][dI]GG[dL]; reading uncertain; also: Cys disulfide-linked to TGN peptide; listed as Homo sapiens)
In vivo mRNA knockdown (%) [1]: 26%

TGN-S-S-SEQ ID NO: 1728(D) ([dC](TGN)G[dL][dF][dA][dV][dI][dE][dE][dV][dA][dS][dV][dI]GG[dL]; reading uncertain; also: Cys disulfide-linked to TGN peptide; listed as Homo sapiens)
In vivo mRNA knockdown (%) [1]: 23%

TGN-S-S-SEQ ID NO: 1729 (L) (C(TGN)GPSQPTYPGDDAPVRDLIRFYRDLRRYLNVVTRHRY; reading uncertain; also: Cys disulfide-linked to TGN peptide; listed as Homo sapiens)
In vivo mRNA knockdown (%) [1]: 10%

TGN-S-S-SEQ ID NO: 1730 (D): TGN-S-S-peptide, peptide CGIGAVLHVLTTGLPALISWIKRKRQQ
In vivo mRNA knockdown (%) [1]: 43%

TGN-S-S-SEQ ID NO: 1731(D): TGN-S-S-peptide, peptide CGIGAVLHVLTTGLPALISWIHHHHQQ
In vivo mRNA knockdown (%) [1]: 30%

TGN-S-S-SEQ ID NO: 1732 (D): TGN-S-S-peptide, peptide AC-GIFEAIAGLLKINFKC
In vivo mRNA knockdown (%) [3]: 35%

TGN-S-S-SEQ ID NO: 1733 (D): TGN-S-S-peptide, peptide AC-GLFGALAEALAEALAEHLAEALAEALEALAAGGSC
In vivo mRNA knockdown (%) [4]: 60%
In vivo mRNA knockdown (%) [5]: 75%
In vivo mRNA knockdown (%) (Table 6, sequential, peptide IV 15 min after siRNA IV, TGN-L-siRNA-II 0.25 mg/kg, peptide 10 mg/kg): 58%
In vivo mRNA knockdown (%) (Table 6, sequential, peptide IV 15 min after siRNA IV, TGN-L-siRNA-II 0.25 mg/kg, peptide 50 mg/kg): 50%
In vivo mRNA knockdown (%) [3]: 73%
In vivo mRNA knockdown (%) (Table 7, TGN-L-siRNA-II 0.25 mg/kg, peptide 3 mg/kg, Sequential dosing-IV (peptide 15 min after siRNA)): 69%
In vivo mRNA knockdown (%) (Table 7, TGN-L-siRNA-II 0.25 mg/kg, peptide 3 mg/kg, Sequential dosing-SC (peptide 15 min after siRNA)): 47%
In vivo mRNA knockdown (%) (Table 7, TGN-L-siRNA-II 0.25 mg/kg, peptide 10 mg/kg, Sequential dosing-IV (peptide 15 min after siRNA)): 58%
In vivo mRNA knockdown (%) (Table 7, TGN-L-siRNA-II 0.25 mg/kg, peptide 10 mg/kg, Sequential dosing-SC (peptide 15 min after siRNA)): 67%

TGN-S-S-SEQ ID NO: 1734 (D): TGN-S-S-peptide, peptide AC-GLFEAIEGFIENGWEGLAELAEALEALAAGGSC
In vivo mRNA knockdown (%) [3]: 61%

TGN-S-S-SEQ ID NO: 1738 (D) (G[dL][dF]G[dE][dI][dE][dE][dL][dI][dE][dE]G[dL][dE][dN][dL][dI][dD][dW]G[dN]G[dL][dA][dE][dL][dA][dE][dA][dL][dE][dA][dL][dA][dA]GG[dS][dC]; not fully specified; also: disulfide to TGN peptide via C-terminal Cys; listed as Homo sapiens)
In vivo mRNA knockdown (%) [4]: 25%
In vivo mRNA knockdown (%) [5]: 44%

TGN-S-S-SEQ ID NO: 1740 (D): TGN-S-S-peptide, peptide GLFEAIEGFIENGWEGLAELAEALEALAAGGSC (G[dL][dF][dE][dA][dI][dE]G[dF][dI][dE][dN]G[dW][dE]G[dL][dA][dE][dL][dA][dE][dA][dL][dE][dA][dL][dA][dA]GG[dS][dC]; not fully specified; also: disulfide to TGN peptide via C-terminal Cys; listed as Homo sapiens)
In vivo mRNA knockdown (%) [4]: 23%
In vivo mRNA knockdown (%) [5]: 42%

TGN-S-S-SEQ ID NO: 1740 (L): TGN-S-S-peptide, peptide GLFEAIEGFIENGWEGLAELAEALEALAAGGSC (GLFEAIEGFIENGWEGLAELAEALEALAAGGSC(TGN); reading uncertain; also: TGN attached via disulfide (S-S); listed as Homo sapiens)
In vivo mRNA knockdown (%) [5]: 20%

TGN-S-S-SEQ ID NO: 1741(L): TGN-S-S-peptide, peptide GLFGALAEALAEALAEHLAEALAEALEALAAGGSC (GLFGALAEALAEALAEHLAEALAEALEALAAGGSC(TGN); reading uncertain; also: TGN attached via disulfide (S-S); listed as Homo sapiens)
In vivo mRNA knockdown (%) [5]: 24%

TGN-S-S-SEQ ID NO: 1744 (D) ([dC][dE][dE][dN][dW][dI]G[dL][dF]GGG[dN][dI][dW][dE][dE][dE][dE][dI][dL][dD][dL][dL]; also: disulfide to TGN peptide via N-terminal Cys; listed as Homo sapiens)
In vivo mRNA knockdown (%) (Table 6, sequential, peptide IV 15 min after siRNA IV, TGN-L-siRNA-III 0.5 mg/kg, peptide 2 mg/kg): 28%
In vivo mRNA knockdown (%) (Table 6, sequential, peptide IV 15 min after siRNA IV, TGN-L-siRNA-III 0.5 mg/kg, peptide 10 mg/kg): 33%
